The assay deals with Histone deacetylase 4 (Homo sapiens, UniProt P56524). As to the kind of experiment: Inhibition of HDAC4 in human HeLa cells nuclear extract using BocLys(acetyl)-AMC as substrate incubated for 1 hr by fluorescence plate reader analysis. The class given is subcellular, Nucleus.

Molecules are shown by their SMILES.

Histone deacetylase 4, sequence (P56524 whole entry): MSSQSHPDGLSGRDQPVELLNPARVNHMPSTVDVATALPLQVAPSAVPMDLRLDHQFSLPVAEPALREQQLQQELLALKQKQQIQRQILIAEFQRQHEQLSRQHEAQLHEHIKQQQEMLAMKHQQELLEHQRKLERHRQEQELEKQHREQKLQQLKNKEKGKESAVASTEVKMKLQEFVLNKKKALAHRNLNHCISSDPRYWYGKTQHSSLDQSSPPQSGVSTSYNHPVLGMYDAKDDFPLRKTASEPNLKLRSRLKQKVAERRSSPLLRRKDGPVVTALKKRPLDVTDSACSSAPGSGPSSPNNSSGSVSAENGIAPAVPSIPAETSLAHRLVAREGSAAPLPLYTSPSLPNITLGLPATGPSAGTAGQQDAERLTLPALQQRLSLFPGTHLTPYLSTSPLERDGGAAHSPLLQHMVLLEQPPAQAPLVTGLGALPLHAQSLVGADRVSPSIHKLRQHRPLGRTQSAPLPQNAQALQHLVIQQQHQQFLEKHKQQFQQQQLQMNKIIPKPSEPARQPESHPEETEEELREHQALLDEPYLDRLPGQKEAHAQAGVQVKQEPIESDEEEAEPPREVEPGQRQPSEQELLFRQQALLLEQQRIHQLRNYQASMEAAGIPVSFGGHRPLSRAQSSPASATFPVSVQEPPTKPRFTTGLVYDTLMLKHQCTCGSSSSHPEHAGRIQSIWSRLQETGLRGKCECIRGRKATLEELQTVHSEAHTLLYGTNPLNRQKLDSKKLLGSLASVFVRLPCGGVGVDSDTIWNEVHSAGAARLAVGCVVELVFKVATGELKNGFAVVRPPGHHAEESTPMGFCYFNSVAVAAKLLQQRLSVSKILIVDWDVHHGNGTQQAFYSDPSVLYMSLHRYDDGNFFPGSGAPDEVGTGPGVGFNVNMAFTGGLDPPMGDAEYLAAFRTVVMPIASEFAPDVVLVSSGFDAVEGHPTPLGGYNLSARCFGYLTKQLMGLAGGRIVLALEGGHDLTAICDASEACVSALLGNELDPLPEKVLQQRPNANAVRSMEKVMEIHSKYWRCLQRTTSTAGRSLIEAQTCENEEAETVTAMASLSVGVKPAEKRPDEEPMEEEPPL

By IC50 is commonly meant the concentration that gives 50% inhibition. A high value points to weaker potency in that assay. For `Nc1cc(F)ccc1NC(=O)c1ccc(CNc2cccc3c2C(=O)N(C2CCC(=O)NC2=O)C3=O)cc1` (configuration not stated), the IC50 was over 2000 nM.

For the compound `Nc1ccccc1NC(=O)c1ccc(CNc2cccc3c2C(=O)N(C2CCC(=O)NC2=O)C3=O)cc1` (configuration not stated), the 50% inhibitory concentration (IC50) was over 2000 nM.

The values above are taken from ChEMBL document CHEMBL5532657, “Serendipitous discovery of Class I HDAC inhibitors from rational design of molecular glue degraders targeting HDAC” (Eur J Med Chem, 2024).
